Structures can show the parent of a compound that is named as a salt. Some results are limits rather than exact numbers.

Chain of hA2A receptor (P29274 whole entry, the tested form may be a part): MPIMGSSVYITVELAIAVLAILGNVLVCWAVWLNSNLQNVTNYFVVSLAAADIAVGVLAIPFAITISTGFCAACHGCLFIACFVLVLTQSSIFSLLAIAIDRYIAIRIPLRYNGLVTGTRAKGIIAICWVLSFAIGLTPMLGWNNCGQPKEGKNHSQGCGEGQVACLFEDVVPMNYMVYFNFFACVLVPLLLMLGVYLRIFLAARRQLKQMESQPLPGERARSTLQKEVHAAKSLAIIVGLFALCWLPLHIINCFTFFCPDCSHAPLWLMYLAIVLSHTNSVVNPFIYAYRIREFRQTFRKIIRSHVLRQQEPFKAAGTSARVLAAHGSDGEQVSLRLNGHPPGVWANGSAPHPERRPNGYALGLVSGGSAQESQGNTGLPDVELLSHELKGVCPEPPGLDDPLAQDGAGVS

The first data set deals with hA2A receptor (Homo sapiens (Human), UniProt P29274). Nature of the data set: A2A FRET-based binding assay. The settings on record: HEK GFP-A2A stable cell line, dyed CGS15943-derived probe. Here is the method:
Assay protocol: Compounds were evaluated on an in-vitro binding assay developed based on the technology described in the patent WO 98/55873. This assay was developed from hA2A receptor that was fused at its amino terminal domain to Green Fluorescent Protein (GFP) and stably expressed in HEK cells. The probe used is a dyed ligand derived from the non-selective CGS15943. For the FRET-binding experiment, HEK GFP-A2A stable cell line was seeded onto poly-D-lysine precoated black-walled 96-well plates in normal growth media (0.7 10^5 cells per well). After 24 hours of culture at 37° C., the cell media was removed and cells were washed. The tested compounds were applied on cells by the FLIPR^TETRA® (Molecular Devices®) and incubated for 10 minutes prior to addition of the dyed probe. When a drug interacts with the receptor, the FRET signal measured by the variation of GFP fluorescence at 510 nm is disrupted. The time curves of ligand binding were recorded during 1000 seconds. (excitation Light Emitting Diode 470-495 nm, emission 510+/−10 nm). The percentage of inhibition allows the evaluation of the inhibitory activity of compounds in comparison to the antagonist A2A reference CGS15943. The dose-inhibition curves were fitted with variable slope, using GraphPad® Prism software, in order to determine […] and Ki values. The dose-inhibition experiments were all performed in duplicate, three times independently.
As usually defined, the Ki is a dissociation constant, usually derived from enzyme kinetics or from competition with a known ligand. Turning to `CCN(C(=O)c1ccc(C(=O)c2cnc3ccc(C#N)cn23)cc1)C1CCCCC1` [Example 7, 4-(6-Cyano-imidazo[1,2-a]pyridine-3-carbonyl)-N-cyclohexyl-N-ethyl-benzamide], the affinity, expressed as Ki, was 171 ± 104 nM.

`CCN(C(=O)c1ccc(C(=O)c2cnc3ccc(Cl)nn23)cc1)C1CCCCC1` [Example 139, N-Cyclohexyl-N-ethyl-4-(6-chloroimidazo[1,2-b]pyridazin-3-ylcarbonyl)-benzamide] yielded a Ki of 459 ± 270 nM. The same measure, in the same setting: the result for `CN1CCN(C(=O)n2nc(-c3cnc4ccc(F)cn34)c3ccc(C(=O)N4CCCCCC4)cc32)CC1.Cl` [Example 111, Azepan-1-yl-[3-(6-fluoro-imidazo[1,2-a]pyridin-3-yl)-1-[(4-methylpiperazin-1-yl)carbonyl]-1H-indazol-6-yl]-methanone, HCl salt] reads 291 ± 30 nM; that for `CCN(C(=O)c1ccc(C(=O)c2cnc3ccc(F)cn23)cc1Cl)C1CCCCC1` [Example 24, 2-Chloro-N-cyclohexyl-N-ethyl-4-(6-fluoro-imidazo[1,2-a]pyridine-3-carbonyl)-benzamide], 34 ± 9 nM.

Molecule `N#Cc1ccc2ncc(-c3noc4cc(C(=O)N5CCOCC5)ccc34)n2c1` [Example 125, 3-[6-(Morpholin-4-ylcarbonyl)-1,2-benzisoxazol-3-yl]imidazo[1,2-a]pyridine-6-carbonitrile, HCl salt] registered a Ki of 147 ± 54 nM. Still for that read-out and setting: the result for `CCN(C(=O)c1ccc(C(=O)c2cnc3ccccn23)cc1)c1ccccc1` [Example 56, N-Ethyl-4-(imidazo[1,2-a]pyridine-3-carbonyl)-N-phenyl-benzamide] reads 188 ± 63 nM; that for `Cl.O=C(c1ccc2c(-c3cnc4ccc(F)cn34)nn(Cc3ccccc3)c2c1)N1CCCCCC1` [Example 107, Azepan-1-yl-[1-benzyl-3-(6-fluoro-imidazo[1,2-a]pyridin-3-yl)-1H-indazol-6-yl]-methanone, HCl salt], 34 ± 5 nM; that for `Nc1nc(-c2cnc3ccc(F)cn23)c2ccc(C(=O)N3CCCCCC3)cc2n1` [Example 136, 2-Amino-7-(azepan-1-ylcarbonyl)-4-(6-fluoroimidazo[1,2-a]pyridin-3-yl)quinazoline, HCl salt], 84 ± 11 nM. As to `Cl.Cn1nc(-c2cnc3ccc(C(F)(F)F)cn23)c2ccc(C(=O)N3CCCCCC3)cc21` [Example 85, [6-(Azepan-1-ylcarbonyl)]-1-methyl-3[6-(trifluoromethyl)-imidazo[1,2-a]pyridin-3-yl]-1H-indazole, HCl salt], the Ki was found to be 177 ± 5 nM. `O=C(c1ccc2c(-c3cnc4ccc(F)cn34)c[nH]c2c1)N1CCCCCC1` [Example 134, 3-[6-(Azepan-1-ylcarbonyl)-1H-indol-3-yl]-6-fluoroimidazo[1,2-a]pyridine] yielded a Ki of 348 ± 95 nM.

Tested on in a further data set: not given
Experiment: not given
Conditions: not given
As a reminder, the melting point is the temperature of the solid-liquid transition. In the case of `CCN(C(=O)c1ccc2c(-c3cnc4ccc(F)cn34)nn(C)c2c1)C(C)C.Cl`, the melting point was more than 250 °C. `COCCOCCn1nc(-c2cnc3ccc(F)cn23)c2ccc(C(=O)N3CCCCCC3)cc21.Cl` registered a melting point of 159 to 165 °C. Regarding `Cl.O=C(c1ccc2c(-c3cnc4ccc(F)cn34)nn(CCc3ccccc3)c2c1)N1CCCCCC1`, the melting point fell in the range of 139 to 140 °C.

Molecule `Cl.Cn1nc(-c2cnc3ccc(F)cn23)c2ccc(C(=O)N3CCCCC3)cc21` (hydrate or solvate) had a melting point of more than 250 °C. In turn, `CN(C(=O)c1ccc2c(-c3cnc4ccc(F)cn34)nn(C)c2c1)c1ccccc1.Cl` returned a melting point of more than 250 °C.

The molecule `Cc1ccc2ncc(-c3nn(C)c4cc(C(=O)N5CCCCCC5)ccc34)n2c1.Cl` yielded a melting point of more than 250 °C. `CN1CCN(C(=O)n2nc(-c3cnc4ccc(F)cn34)c3ccc(C(=O)N4CCCCCC4)cc32)CC1.Cl` [Example 111, Azepan-1-yl-[3-(6-fluoro-imidazo[1,2-a]pyridin-3-yl)-1-[(4-methylpiperazin-1-yl)carbonyl]-1H-indazol-6-yl]-methanone, HCl salt] had a melting point of 193 to 199 °C. As for `Cl.Cn1nc(-c2cnc3ccc(F)cn23)c2ccc(C(=O)N3CCCC4CCCCC43)cc21` (stereo not drawn), the melting point fell in the range of 248 to 249 °C. With `Cl.O=C(c1ccc2c(-c3cnc4ccc(F)cn34)nn(CCN3CCOCC3)c2c1)N1CCCCCC1`, the melting point lay in the range of 230 to 245 °C. Molecule `Cl.Cn1nc(-c2cnc3ccc(F)cn23)c2ccc(C(=O)N(CC3CC3)C3CCCCC3)cc21` registered a melting point of 235 to 245 °C. The molecule `Cl.N#Cc1ccc2ncc(-c3noc4cc(C(=O)N5CCCCCC5)ccc34)n2c1` displayed a melting point of 234 to 235 °C. `CCN(C(=O)c1ccc(C(=O)c2cnc3ccccn23)cc1)c1ccccc1` [Example 56, N-Ethyl-4-(imidazo[1,2-a]pyridine-3-carbonyl)-N-phenyl-benzamide] gave a melting point of 141 to 145 °C. The molecule `Cl.Cn1nc(-c2cnc3ccccn23)c2ccc(C(=O)N3CCCCCC3)cc21` displayed a melting point of more than 250 °C. As to `Cl.Cn1nc(-c2cnc3ccc(F)cn23)c2ccc(C(=O)N3CCCCCCC3)cc21` (hydrate or solvate) [Example 97, Azocan-1-yl-[3-(6-fluoro-imidazo[1,2-a]pyridin-3-yl)-1-methyl-1H-indazol-6-yl]-methanone, chlorhydrate salt], the melting point fell in the range of 241 to 249 °C. On the same count and under the same terms, in the case of `Cl.O=C(c1ccc2c(-c3cnc4ccc(F)cn34)nn(Cc3ccccc3)c2c1)N1CCCCCC1` [Example 107, Azepan-1-yl-[1-benzyl-3-(6-fluoro-imidazo[1,2-a]pyridin-3-yl)-1H-indazol-6-yl]-methanone, HCl salt] it was 134 to 135 °C; in that of `COC[C@H]1CCCN1C(=O)c1ccc2c(-c3cnc4ccc(C#N)cn34)nn(C)c2c1.Cl` (hydrate or solvate) [Example 101, 3-(1-Methyl-6-{[(2R)-2-(methoxymethyl)pyrrolidin-1-yl]carbonyl}-1H-indazol-3-yl)imidazo[1,2-a]pyridine-6-carbonitrile, chlorhydrate salt], 230 to 235 °C.

As for `Cl.Cn1nc(-c2cnc3ccc(F)cn23)c2ccc(C(=O)N3CCCCCCCC3)cc21` (hydrate or solvate), the melting point lay in the range of 240 to 245 °C. The molecule `N#Cc1ccc2ncc(C(=O)c3ccc(C(=O)N4CCCCCC4)cc3F)n2c1` [Example 73, 3-[4-(Azepan-1-ylcarbonyl)-2-fluorobenzoyl]imidazo[1,2-a]pyridine-6-carbonitrile] yielded a melting point of 128 to 130 °C.

In the case of `CCN(C(=O)c1ccc2c(-c3cnc4ccc(F)cn34)noc2c1)C(C)C.Cl`, the melting point lay in the range of 219 to 225 °C. The molecule `Cl.Cn1nc(-c2cnc3ccc(C4CC4)cn23)c2ccc(C(=O)N3CCCCCC3)cc21` had a melting point of more than 250 °C. The molecule `Cl.O=C(c1ccc2c(-c3cnc4ccc(F)cn34)noc2c1)N1CCCCC1` had a melting point of 203 to 205 °C.

`Cl.Cn1nc(-c2cnc3ccc(C(F)(F)F)cn23)c2ccc(C(=O)N3CCCCCC3)cc21` [Example 85, [6-(Azepan-1-ylcarbonyl)]-1-methyl-3[6-(trifluoromethyl)-imidazo[1,2-a]pyridin-3-yl]-1H-indazole, HCl salt] came in with a melting point of 202 to 204 °C. `CCc1ccc2ncc(-c3nn(C)c4cc(C(=O)N5CCCCCC5)ccc34)n2c1.Cl` had a melting point of more than 250 °C. For `CN(C(=O)c1ccc(C(=O)c2cnc3ccc(F)cn23)cc1)c1ccccc1` [Example 50, 4-(6-Fluoro-imidazo[1,2-a]pyridine-3-carbonyl)-N-methyl-N-phenyl-benzamide], the melting point fell in the range of 131 to 135 °C.

`Cl.Cn1nc(-c2cnc3ccc(C#N)cn23)c2ccc(C(=O)N3CCCCC3)cc21` (hydrate or solvate): the melting point is more than 250 °C. Still for that read-out and setting: in the case of `Cl.Cn1nc(-c2cnc3ccc(C#N)cn23)c2ccc(C(=O)N3CCCCCC3)cc21` it was more than 250 °C.

These data come from US9029393B2, “Adenosine receptor ligands and uses thereof” (Kaldi Pharma, SAS, priority 2009, dated 2015).
